According to patent publication US20120208809A1, “9H-PYRROLO[2,3-B: 5,4-C'] DIPYRIDINE AZACARBOLINE DERIVATIVES, PREPARATION THEREOF, AND THERAPEUTIC USE THEREOF” (SANOFI, priority 2009, published 2012):

Key:
[1] = target: T1, Pim-1 (Homo sapiens, UniProt P11309); assay: TR-FRET assay of Pim kinase activity (phosphorylation of Bad Ser112), Pim-1; assay type: biochemical; conditions: ATP 40 μM, read-out: IC50 Pim1
T1 construct: full-length human recombinant His6-labelled Pim-1, Pim-2 or Pim-3 protein; His6; made in house
Procedure: (§1) In order to determine the inhibition of Pim kinase activity, the compounds of the invention are tested in accordance with a routinely-used in-vitro TR-FRET assay (“Time Resolved-Fluorescence Resonance Energy Transfer”). […] For the assay, the following reagents are used:
(§2) Pim kinase—full-length human recombinant His6-labelled Pim-1, Pim-2 or Pim-3 protein (prepared according to J. Mol. Biol. (2005) 348, 183-193); Bad—full-length human recombinant His6-labelled Bad protein (prepared according to J. Mol. Biol. (2005) 348, 183-193); α-His6-APC—mouse monoclonal antibody conjugated to allophycocyanine SureLight™ directed against the His6 label (Perkin-Elmer, No. AD0059H, Waltham, Mass., United States); α-P˜Bad-Eu—mouse monoclonal antibody (Cell Signaling Technology #9296B, Danvers, Mass., United States) directed against phosphoBad (Ser112) (7E11) labelled on request by Perkin-Elmer with the reagent LANCE™ Eu-W1024.
(§3) The assay is based on the LANCE™ technology from Perkin-Elmer: the Eu-labelled antibody binds to phospho-Ser112 and generates a TR-FRET signal by interaction with the […] antibody directed against His6, bound to the His6 label of Bad. The TR-FRET signal is detected using a SpectraMax M5 plate reader (Molecular Devices) with the following settings: λex=340 nm, λem1=615 nm, λem2=665 nm. The ratio of the fluorescence signal at 665 nm to the fluorescence signal at 615 nm is used as the signal reading for the IC50 (calculations based on the 4-parameter logistic model). The assay is performed in 384-well format; the liquid manipulations are performed using a Beckmann 3000 liquid manipulation station. The test compounds are tested at 10 concentration points in duplicate; the highest concentration of compound is typically equal to 30 μM. The ATP concentration is equal to 40 μM.

[2] = target: T2, Pim-2 (Homo sapiens, UniProt Q9P1W9); assay: TR-FRET assay of Pim kinase activity (phosphorylation of Bad Ser112), Pim-2; assay type: biochemical; conditions: ATP 40 μM, read-out: IC50 Pim2
T2 construct: full-length human recombinant His6-labelled Pim-1, Pim-2 or Pim-3 protein; His6; made in house
Procedure: as §1, §2, §3

[3] = target: T3, Pim-3 (Homo sapiens, UniProt Q86V86); assay: TR-FRET assay of Pim kinase activity (phosphorylation of Bad Ser112), Pim-3; assay type: biochemical; conditions: ATP 40 μM, read-out: IC50 Pim3
T3 construct: full-length human recombinant His6-labelled Pim-1, Pim-2 or Pim-3 protein; His6; made in house
Procedure: as §1, §2, §3

[4] = target: CDK1 (Homo sapiens, UniProt P06493); assay: Biochemical results, IC50 CDK1
[5] = target: PLK1 (Homo sapiens, UniProt P53350); assay: Biochemical results, IC50 PLK1
Chain of PLK1 (P53350 whole entry, species assumed): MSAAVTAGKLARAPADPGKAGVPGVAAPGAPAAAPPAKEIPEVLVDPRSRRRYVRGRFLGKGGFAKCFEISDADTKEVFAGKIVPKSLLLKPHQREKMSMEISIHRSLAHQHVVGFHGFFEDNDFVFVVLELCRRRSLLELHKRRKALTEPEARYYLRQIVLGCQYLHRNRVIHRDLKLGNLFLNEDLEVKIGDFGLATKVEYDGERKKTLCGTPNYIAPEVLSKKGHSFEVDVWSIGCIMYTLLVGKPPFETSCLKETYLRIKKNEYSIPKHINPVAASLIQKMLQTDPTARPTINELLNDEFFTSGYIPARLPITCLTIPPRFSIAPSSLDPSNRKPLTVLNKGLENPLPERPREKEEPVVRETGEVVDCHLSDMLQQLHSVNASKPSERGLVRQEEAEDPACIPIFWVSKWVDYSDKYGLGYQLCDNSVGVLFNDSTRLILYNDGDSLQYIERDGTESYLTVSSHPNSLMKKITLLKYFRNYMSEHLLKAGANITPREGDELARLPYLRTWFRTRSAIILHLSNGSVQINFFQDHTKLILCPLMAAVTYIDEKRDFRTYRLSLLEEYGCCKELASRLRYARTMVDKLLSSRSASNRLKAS

Chain of CDK1 (P06493 whole entry, species assumed): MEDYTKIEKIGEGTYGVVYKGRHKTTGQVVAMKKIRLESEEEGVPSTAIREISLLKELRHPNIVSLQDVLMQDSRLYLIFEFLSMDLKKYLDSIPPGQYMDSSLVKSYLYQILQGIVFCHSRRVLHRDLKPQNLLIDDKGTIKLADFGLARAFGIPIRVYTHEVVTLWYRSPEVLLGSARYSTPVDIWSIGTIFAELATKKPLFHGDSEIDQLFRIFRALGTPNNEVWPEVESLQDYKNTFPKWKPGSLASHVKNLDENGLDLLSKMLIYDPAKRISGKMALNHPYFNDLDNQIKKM
Chain of CDK1 (P14635 whole entry partner, species assumed): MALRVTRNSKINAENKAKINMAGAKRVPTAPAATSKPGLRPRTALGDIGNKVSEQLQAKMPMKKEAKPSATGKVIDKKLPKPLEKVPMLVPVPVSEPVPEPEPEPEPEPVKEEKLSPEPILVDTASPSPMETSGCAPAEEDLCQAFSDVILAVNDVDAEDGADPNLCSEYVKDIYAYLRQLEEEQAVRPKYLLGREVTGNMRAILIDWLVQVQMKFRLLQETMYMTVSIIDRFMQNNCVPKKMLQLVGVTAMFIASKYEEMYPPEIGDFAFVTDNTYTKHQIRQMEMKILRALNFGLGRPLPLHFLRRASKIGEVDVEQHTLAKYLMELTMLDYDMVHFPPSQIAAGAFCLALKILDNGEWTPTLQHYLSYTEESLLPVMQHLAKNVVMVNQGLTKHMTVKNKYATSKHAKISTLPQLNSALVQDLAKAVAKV
T1 sequence (P11309 whole entry): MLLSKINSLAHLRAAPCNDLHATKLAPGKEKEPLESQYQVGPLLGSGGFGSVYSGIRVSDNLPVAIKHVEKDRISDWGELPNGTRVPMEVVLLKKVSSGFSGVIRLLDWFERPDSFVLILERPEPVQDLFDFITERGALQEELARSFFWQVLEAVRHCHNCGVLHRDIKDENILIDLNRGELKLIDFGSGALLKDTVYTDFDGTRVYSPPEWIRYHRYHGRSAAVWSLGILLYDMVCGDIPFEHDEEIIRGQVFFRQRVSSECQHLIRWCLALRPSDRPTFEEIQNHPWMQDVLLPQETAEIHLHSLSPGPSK
T2 sequence (Q9P1W9 whole entry): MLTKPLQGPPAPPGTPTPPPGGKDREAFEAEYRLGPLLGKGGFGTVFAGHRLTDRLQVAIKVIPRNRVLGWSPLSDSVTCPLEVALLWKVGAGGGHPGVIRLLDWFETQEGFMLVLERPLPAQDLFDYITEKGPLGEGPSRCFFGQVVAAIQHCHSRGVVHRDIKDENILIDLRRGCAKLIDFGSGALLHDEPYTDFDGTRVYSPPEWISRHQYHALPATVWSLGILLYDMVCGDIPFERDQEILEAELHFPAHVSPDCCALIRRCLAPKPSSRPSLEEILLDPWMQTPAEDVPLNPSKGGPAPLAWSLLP

Row | SMILES | IC50 [1] | IC50 [2] | IC50 [3] | IC50 [4] | IC50 [5]
1 | COCCNC(=O)c1ccc(-c2c(F)cnc3[nH]c4cnc(-c5cccnc5)cc4c23)cc1 [Example 14, 4-[3-fluoro-6-(pyridin-3-yl)-9H-pyrrolo[2,3-b:5,4-c′]dipyridin-4-yl]-N-(2-methoxyethyl)benzamide] | < 100 nM | 1000 to 5000 nM | 100 to 1000 nM | – | –
2 | COCCCNC(=O)c1ccc(-c2c(F)cnc3[nH]c4cnc(-c5cccnc5)cc4c23)cc1 [Example 17, 4-[3-fluoro-6-(pyridin-3-yl)-9H-pyrrolo[2,3-b:5,4-c′]dipyridin-4-yl]-N-(3-methoxypropyl)benzamide] | < 100 nM | 1000 to 5000 nM | 100 to 1000 nM | – | –
3 | O=C(NCCNCCO)c1ccc(-c2c(F)cnc3[nH]c4cnc(-c5cccnc5)cc4c23)cc1 [Example 27, 4-[3-fluoro-6-(pyridin-3-yl)-9H-pyrrolo[2,3-b:5,4-c′]dipyridin-4-yl]-N-{2-[(2-hydroxyethyl)amino]ethyl}benzamide] | < 100 nM | < 100 nM | < 100 nM | 1000 to 5000 nM | 100 to 1000 nM
4 | O=C(NCc1nnn[nH]1)c1ccc(-c2c(F)cnc3[nH]c4cnc(-c5cccnc5)cc4c23)cc1 [Example 45, 4-[3-fluoro-6-(pyridin-3-yl)-9H-pyrrolo[2,3-b:5,4-c′]dipyridin-4-yl]-N-(1H-tetrazol-5-ylmethyl)benzamide] | 100 to 1000 nM | > 5000 nM | 100 to 1000 nM | 100 to 1000 nM | < 100 nM
5 | CC(=O)NCCNC(=O)c1ccc(-c2c(F)cnc3[nH]c4cnc(-c5cccnc5)cc4c23)cc1 [Example 48, N-[2-(acetylamino)ethyl]-4-[3-fluoro-6-(pyridin-3-yl)-9H-pyrrolo[2,3-b:5,4-c′]dipyridin-4-yl]benzamide] | < 100 nM | 1000 to 5000 nM | 100 to 1000 nM | 100 to 1000 nM | < 100 nM
6 | O=C(NCCCN1CCCC1=O)c1ccc(-c2c(F)cnc3[nH]c4cnc(-c5cccnc5)cc4c23)cc1 [Example 49, 4-[3-fiuoro-6-(pyridin-3-yl)-9H-pyrrolo[2,3-b:5,4-c′]dipyridin-4-yl]-N-[3-(2-oxopyrrolidin-1-yl)propyl]benzamide] | 100 to 1000 nM | > 5000 nM | 100 to 1000 nM | 1000 to 5000 nM | 100 to 1000 nM
7 | O=C(NCCNc1ccccc1)c1ccc(-c2c(F)cnc3[nH]c4cnc(-c5cccnc5)cc4c23)cc1 [Example 50, 4-[3-fluoro-6-(pyridin-3-yl)-9H-pyrrolo[2,3-b:5,4-c′]dipyridin-4-yl]-N-[2-(phenylamino)ethyl]benzamide] | 100 to 1000 nM | > 5000 nM | 100 to 1000 nM | 100 to 1000 nM | < 100 nM
8 | CN(C)CCNC(=O)c1ccc(-c2c(F)cnc3[nH]c4cnc(-c5cccnc5)cc4c23)cn1 [Example 112, N-[2-(dimethylamino)ethyl]-5-[3-fluoro-6-(pyridin-3-yl)-9H-pyrrolo[2,3-b:5,4-c′]dipyridin-4-yl]pyridine-2-carboxamide] | 100 to 1000 nM | 1000 to 5000 nM | 100 to 1000 nM | – | –
9 | CN(C)CCNC(=O)c1ccc(-c2c(F)cnc3[nH]c4cnc(-c5cccnc5)cc4c23)cc1F [Example 113, N-[2-(dimethylamino)ethyl]-2-fluoro-4-[3-fluoro-6-(pyridin-3-yl)-9H-pyrrolo[2,3-b:5,4-c′]dipyridin-4-yl]benzamide] | < 100 nM | 100 to 1000 nM | < 100 nM | – | –

Continued, values first:

Row | IC50 [1] | IC50 [2] | IC50 [3] | IC50 [4] | IC50 [5] | SMILES
10 | < 100 nM | 1000 to 5000 nM | 100 to 1000 nM | – | – | O=C(c1ccc(-c2c(F)cnc3[nH]c4cnc(-c5cccnc5)cc4c23)cc1)N1CCOCC1 [Example 13, {4-[3-fluoro-6-(pyridin-3-yl)-9H-pyrrolo[2,3-b:5,4-c′]dipyridin-4-yl]phenyl}(morpholin-4-yl)methanone]
11 | 100 to 1000 nM | > 5000 nM | 1000 to 5000 nM | – | – | O=C(c1cccc(-c2c(F)cnc3[nH]c4cnc(-c5cccnc5)cc4c23)c1)N1CCOCC1 [Example 15, {3-[3-fluoro-6-(pyridin-3-yl)-9H-pyrrolo[2,3-b:5,4-c′]dipyridin-4-yl]phenyl}(morpholin-4-yl)methanone]
12 | < 100 nM | 1000 to 5000 nM | 100 to 1000 nM | – | – | CN1CCN(C(=O)c2ccc(-c3c(F)cnc4[nH]c5cnc(-c6cccnc6)cc5c34)cc2)CC1 [Example 16, {4-[3-fluoro-6-(pyridin-3-yl)-9H-pyrrolo[2,3-b:5,4-c′]dipyridin-4-yl]phenyl}(4-methylpiperazin-1-yl)methanone]
13 | < 100 nM | 1000 to 5000 nM | < 100 nM | 100 to 1000 nM | 100 to 1000 nM | CN(C)[C@@H]1CCN(C(=O)c2ccc(-c3c(F)cnc4[nH]c5cnc(-c6cccnc6)cc5c34)cc2)C1 [Example 46, [(3R)-3-(dimethylamino)pyrrolidin-1-yl]{4-[3-fluoro-6-(pyridin-3-yl)-9H-pyrrolo[2,3-b:5,4-c′]dipyridin-4-yl]phenyl}methanone]
14 | < 100 nM | < 100 nM | < 100 nM | 100 to 1000 nM | 100 to 1000 nM | CN1C[C@@H]2CCN(C(=O)c3ccc(-c4c(F)cnc5[nH]c6cnc(-c7cccnc7)cc6c45)cc3)[C@@H]2C1 [Example 47, {4-[3-fluoro-6-(pyridin-3-yl)-9H-pyrrolo[2,3-b:5,4-c′]dipyridin-4-yl]phenyl}[(3aS,6aS)-5-methylhexahydropyrrolo[3,4-b]pyrrol-1(2H)-yl]methanone]
15 | < 100 nM | 100 to 1000 nM | < 100 nM | 1000 to 5000 nM | 100 to 1000 nM | CCN1CCCC1CNC(=O)c1ccc(-c2c(F)cnc3[nH]c4cnc(-c5cccnc5)cc4c23)cc1 (stereo not drawn) [Example 51, N-[(1-ethylpyrrolidin-2-yl)methyl]-4-[3-fluoro-6-(pyridin-3-yl)-9H-pyrrolo[2,3-b:5,4-c′]dipyridin-4-yl]benzamide]
16 | < 100 nM | 100 to 1000 nM | < 100 nM | 1000 to 5000 nM | 100 to 1000 nM | CCN1CCC[C@H]1CNC(=O)c1ccc(-c2c(F)cnc3[nH]c4cnc(-c5cccnc5)cc4c23)cc1 [Example 53, N-{[(2S)-1-ethylpyrrolidin-2-yl]methyl}-4-[3-fluoro-6-(pyridin-3-yl)-9H-pyrrolo[2,3-b:5,4-c′]dipyridin-4-yl]benzamide]
17 | < 100 nM | < 100 nM | < 100 nM | – | – | N[C@@H]1CCCC[C@H]1NC(=O)c1ccc(-c2c(F)cnc3[nH]c4cnc(-c5cccnc5)cc4c23)cc1 [Example 83, N-[(1R,2R)-2-aminocyclohexyl]-4-[3-fluoro-6-(pyridin-3-yl)-9H-pyrrolo[2,3-b:5,4-c′]dipyridin-4-yl]benzamide]
18 | < 100 nM | < 100 nM | < 100 nM | – | – | N[C@H]1CCC[C@@H]1NC(=O)c1ccc(-c2c(F)cnc3[nH]c4cnc(-c5cccnc5)cc4c23)cc1 [Example 85, N-[(1S,2S)-2-aminocyclopentyl]-4-[3-fluoro-6-(pyridin-3-yl)-9H-pyrrolo[2,3-b:5,4-c′]dipyridin-4-yl]benzamide]
19 | < 100 nM | < 100 nM | < 100 nM | – | – | N[C@@H]1CCC[C@H]1NC(=O)c1ccc(-c2c(F)cnc3[nH]c4cnc(-c5cccnc5)cc4c23)cc1 [Example 86, N-[(1R,2R)-2-aminocyclopentyl]-4-[3-fluoro-6-(pyridin-3-yl)-9H-pyrrolo[2,3-b:5,4-c′]dipyridin-4-yl]benzamide]
